The values that follow are results of earlier work, collected in patent US8715728B2, “Extended release pellet formulation containing pramipexole or a pharmaceutically acceptable salt thereof” (Boehringer Ingelheim International GmbH, priority 2004, dated 2014).

Structures can show the parent of a compound that is named as a salt.

For data set [1] the following is noted: in vivo.
Assay in data set [2]: not given
The source holds these as a separate data set.

`CCCN[C@H]1CCc2nc(N)sc2C1` [Pramipexole, (S)-2-amino-4,5,6,7-tetrahydro-6-(propylamino)benzothiazole]: the stability in solution result (in solution, light) is on record as “light sensitive”. Also, for the setting “solid state”, the “stability in the solid state” value is recorded as “very stable”. The kinetics entry in data set [1] was “linear kinetics”.

As to `CCCN[C@H]1CCc2nc(N)sc2C1` [Pramipexole dihydrochloride monohydrate, pramipexole dihydrochloride monohydrate], in data set [2] (between pH 2 and pH 7.4), the “solubility in buffer media” value is given as “above 10 mg/ml”. In addition, in data set [2] (water), the Water solubility entry is “more than 20 mg/mL”.
